Columns and labels:
[1] = target: Poly [ADP-ribose] polymerase 1 (Homo sapiens, UniProt P09874); assay: Inhibition of human PARP1 using [3H]NAD as substrate after 1 min by microplate scintillation counting analysis
[2] = Cytotoxicity against BRCA2-deficient human Capan1 cells; assay type: functional, cell-based, CAPAN-1; conditions: Homo sapiens, CAPAN-1
[3] = target: PARP 1, 2 and 3 (Homo sapiens, UniProt P09874+Q9Y6F1+Q9UGN5); assay: Inhibition of PARP in human LoVo cells assessed as inhibition of poly(ADP)-ribose polymerization for 30 mins by fluorescence assay; assay type: cell-based
[4] = system: LoVo; assay: cells; conditions: Homo sapiens, 120 h
[5] = Half life in rat liver microsomes; assay type: ADME

Chain of Poly [ADP-ribose] polymerase 1 (P09874 whole entry): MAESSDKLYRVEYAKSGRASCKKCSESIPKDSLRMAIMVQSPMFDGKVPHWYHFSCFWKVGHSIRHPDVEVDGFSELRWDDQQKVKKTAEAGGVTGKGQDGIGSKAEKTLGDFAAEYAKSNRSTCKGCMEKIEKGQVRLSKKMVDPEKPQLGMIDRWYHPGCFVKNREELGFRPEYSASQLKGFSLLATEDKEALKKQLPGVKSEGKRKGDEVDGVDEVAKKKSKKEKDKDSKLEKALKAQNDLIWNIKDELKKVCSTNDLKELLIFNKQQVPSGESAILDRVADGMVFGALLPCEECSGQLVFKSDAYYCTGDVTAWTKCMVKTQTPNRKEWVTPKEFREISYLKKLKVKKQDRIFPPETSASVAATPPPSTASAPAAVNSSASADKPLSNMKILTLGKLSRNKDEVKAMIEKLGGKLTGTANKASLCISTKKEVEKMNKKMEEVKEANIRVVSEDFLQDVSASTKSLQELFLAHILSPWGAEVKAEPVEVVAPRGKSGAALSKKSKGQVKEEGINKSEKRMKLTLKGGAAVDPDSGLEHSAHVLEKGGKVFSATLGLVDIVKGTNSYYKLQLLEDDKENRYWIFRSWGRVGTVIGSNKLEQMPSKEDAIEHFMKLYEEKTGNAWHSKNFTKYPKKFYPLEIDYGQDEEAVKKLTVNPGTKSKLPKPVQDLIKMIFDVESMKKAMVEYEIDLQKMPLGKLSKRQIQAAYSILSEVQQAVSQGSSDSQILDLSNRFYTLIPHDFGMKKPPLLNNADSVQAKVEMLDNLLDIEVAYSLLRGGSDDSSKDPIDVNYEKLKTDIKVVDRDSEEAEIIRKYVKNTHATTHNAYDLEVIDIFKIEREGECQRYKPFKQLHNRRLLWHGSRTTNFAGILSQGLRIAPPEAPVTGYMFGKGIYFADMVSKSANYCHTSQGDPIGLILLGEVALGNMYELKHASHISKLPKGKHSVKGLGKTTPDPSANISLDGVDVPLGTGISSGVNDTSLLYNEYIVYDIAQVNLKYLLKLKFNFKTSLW

SMILES	IC50 [1]	EC50 [2]	EC50 [3]	GI50 [4]	half-life [5]
O=c1[nH]nc2c3c(cccc13)NC(c1cccnc1)C2C1CCCNC1 (centres undefined)	105 nM	–	–	–	–
CN(C)Cc1ccc(C2Nc3cc(F)cc4c(=O)[nH]nc(c34)C2c2ccc(F)cc2)cc1 (centres undefined)	2.63 nM	134 nM	6.1 nM	94000 nM	1.37 h
O=c1[nH]nc2c3c(cccc13)NC(c1ccccn1)C2c1ccccn1 (centres undefined)	108 nM	–	–	–	–
NC(=O)c1cccc2cn(-c3ccc([C@@H]4CCCNC4)cc3)nc12 [NIRAPARIB]	–	650 nM	–	–	–
Cn1ncnc1C1c2n[nH]c(=O)c3cc(F)cc(c23)NC1c1ccc(F)cc1 (centres undefined)	–	8 nM	–	19000 nM	5.98 h
Cn1nccc1C1Nc2cc(F)cc3c(=O)[nH]nc(c23)C1c1ncnn1C (centres undefined)	2.88 nM	1920 nM	–	–	–
Cn1ncnc1C1c2n[nH]c(=O)c3cccc(c23)NC1c1ccc(F)cc1 (centres undefined)	2.29 nM	71 nM	6.94 nM	44000 nM	> 2 h
O=c1[nH]nc2c3c(cccc13)NC(c1cccnc1)C2c1cccnc1 (centres undefined)	17.7 nM	–	–	–	–
CN(C)Cc1cccc(C2Nc3cccc4c(=O)[nH]nc(c34)C2c2ccccc2)c1 (centres undefined)	2.63 nM	–	–	128000 nM	–
Cn1ccnc1C1Nc2cccc3c(=O)[nH]nc(c23)C1c1ccccc1 (centres undefined)	9.45 nM	–	–	> 400000 nM	–
Cn1ncnc1C1c2n[nH]c(=O)c3cc(F)cc(c23)NC1c1ccc(C#N)cc1 (centres undefined)	3.9 nM	88 nM	–	–	–
Cn1ccnc1C1c2n[nH]c(=O)c3cccc(c23)NC1c1ccc(C(F)(F)F)cc1 (centres undefined)	5.27 nM	1100 nM	27.2 nM	192000 nM	–
CN(C)Cc1cccc(C2c3n[nH]c(=O)c4cccc(c34)NC2c2ccccc2)c1 (centres undefined)	3.65 nM	–	–	204000 nM	0.183 h
Cn1ccnc1[C@@H]1c2n[nH]c(=O)c3cccc(c23)N[C@H]1c1ccc(F)cc1	136 nM	6310 nM	285 nM	> 10000 nM	–
Cc1ccc(C2c3n[nH]c(=O)c4cccc(c34)NC2c2ccc(CN(C)C)cc2)cc1 (centres undefined)	1.95 nM	514 nM	10.8 nM	123000 nM	0.583 h
CC(C)c1ccc(C2c3n[nH]c(=O)c4cccc(c34)NC2c2ccc(CN(C)C)cc2)cc1 (centres undefined)	9.59 nM	–	15.2 nM	123000 nM	–
Cn1ccnc1C1c2n[nH]c(=O)c3cc(F)cc(c23)NC1c1ccc(F)cc1 (centres undefined)	1.87 nM	56 nM	17 nM	35700 nM	–
O=c1[nH]nc2c3c(cccc13)NC(c1ccc(CN3CCCC3)cc1)C2c1ccccc1 (centres undefined)	4.02 nM	298 nM	9.47 nM	90000 nM	0.133 h
Cn1ncnc1[C@@H]1c2n[nH]c(=O)c3cc(F)cc(c23)N[C@H]1c1ccc(F)cc1	–	1140 nM	–	1810 nM	–
CN(C)Cc1ccc(C2Nc3cccc4c(=O)[nH]nc(c34)C2c2ccc(CN(C)C)cc2)cc1 (centres undefined)	3.89 nM	979 nM	18.6 nM	63000 nM	> 2 h
CN(C)Cc1ccc(C2Nc3cccc4c(=O)[nH]nc(c34)C2c2ccc(C(F)(F)F)cc2)cc1 (centres undefined)	6.29 nM	818 nM	6.7 nM	94000 nM	–
O=c1[nH]nc2c3c(cccc13)NC(c1ccc(CN3CCC3)cc1)C2c1ccc(F)cc1 (centres undefined)	3.09 nM	276 nM	3.81 nM	95000 nM	1.48 h
O=c1[nH]nc2c3c(cccc13)NC(c1ccc(CN3CCC3)cc1)C2c1ccccc1 (centres undefined)	3.63 nM	434 nM	9.7 nM	89000 nM	0.133 h

SMILES	IC50 [1]	EC50 [2]	EC50 [3]	GI50 [4]	half-life [5]
CN1CCN(Cc2ccc(C3Nc4cccc5c(=O)[nH]nc(c45)C3c3ccccc3)cc2)CC1 (centres undefined)	2.02 nM	603 nM	40.6 nM	54600 nM	0.317 h
Cn1ncnc1C1c2n[nH]c(=O)c3cc(F)cc(c23)NC1c1cncnc1 (centres undefined)	7.62 nM	–	–	–	–
Cn1ccnc1C1c2n[nH]c(=O)c3cc(Cl)cc(c23)NC1c1ccccc1 (centres undefined)	6.18 nM	785 nM	121 nM	111000 nM	–
Cn1ccnc1[C@@H]1c2n[nH]c(=O)c3cc(F)cc(c23)N[C@H]1c1ccc(F)cc1	22.4 nM	124 nM	164 nM	104 nM	–
Cn1cnnc1C1c2n[nH]c(=O)c3cccc(c23)NC1c1ccccc1 (centres undefined)	2.76 nM	4340 nM	–	> 400000 nM	–
Cn1ccnc1C1c2n[nH]c(=O)c3cc(F)cc(c23)NC1c1ccccc1 (centres undefined)	2.14 nM	108 nM	18.1 nM	36300 nM	1.72 h
Cn1ccnc1C1c2n[nH]c(=O)c3cccc(c23)NC1c1ccc(F)cc1 (centres undefined)	2.08 nM	418 nM	19.7 nM	75500 nM	> 2 h
O=c1[nH]nc2c3c(cccc13)NC(c1ccccc1)C2c1ccccc1 (centres undefined)	6.1 nM	2970 nM	58.4 nM	324000 nM	–
O=c1[nH]nc2c3c(cccc13)NC(c1ccc(CN3CCCC3)cc1)C2c1ccc(F)cc1 (centres undefined)	2.02 nM	454 nM	23 nM	134000 nM	1.48 h
Cn1ccnc1C1c2n[nH]c(=O)c3cccc(c23)NC1c1ccccc1 (centres undefined)	2.35 nM	360 nM	16.9 nM	97000 nM	1.48 h
Cn1nccc1C1c2n[nH]c(=O)c3cc(F)cc(c23)NC1c1ccc(F)cc1 (centres undefined)	1.84 nM	956 nM	9.33 nM	> 400000 nM	–
O=c1[nH]nc2c3c(cccc13)NC(c1ccc(F)cc1)C2c1nccs1 (centres undefined)	7.35 nM	–	24.4 nM	106000 nM	–
CN(C)Cc1ccc(C2Nc3cccc4c(=O)[nH]nc(c34)C2c2ccc(F)cc2)cc1 (centres undefined)	2.48 nM	1730 nM	18.5 nM	76000 nM	0.733 h
O=c1[nH]nc2c3c(cccc13)NC(c1ccncc1)C2c1ccncc1 (centres undefined)	22.4 nM	–	–	> 400000 nM	–
Cn1ncnc1C1c2n[nH]c(=O)c3cc(F)cc(c23)NC1c1ccccc1 (centres undefined)	2.6 nM	9 nM	–	24000 nM	7.87 h
O=c1[nH]nc2c3c(cccc13)N[C@@H](c1ccc(CN3CCC3)cc1)[C@@H]2c1ccc(F)cc1	5.6 nM	2250 nM	11.8 nM	3570 nM	–
CN(C)Cc1ccc(C2c3n[nH]c(=O)c4cccc(c34)NC2c2ccccc2)cc1 (centres undefined)	5.85 nM	–	–	112000 nM	0.1 h
CC(=O)Nc1ccc(C2Nc3cc(F)cc4c(=O)[nH]nc(c34)C2c2ncnn2C)cc1 (centres undefined)	2.08 nM	146 nM	–	–	> 2 h
CN(C)Cc1ccc(C2Nc3cccc4c(=O)[nH]nc(c34)C2c2ccccc2)cc1 (centres undefined)	2.36 nM	387 nM	6 nM	59000 nM	0.2 h
CC(C)C1c2n[nH]c(=O)c3cccc(c23)NC1c1ccccc1 (centres undefined)	4140 nM	–	–	–	–
Cn1ncnc1[C@@H]1c2n[nH]c(=O)c3cccc(c23)N[C@H]1c1ccc(F)cc1	68.9 nM	1880 nM	250 nM	3260 nM	–
Cn1ncnc1C1c2n[nH]c(=O)c3cccc(c23)NC1c1ccccc1 (centres undefined)	2.4 nM	170 nM	149 nM	> 400000 nM	6.9 h
Cn1ccnc1C1Nc2cccc3c(=O)[nH]nc(c23)C1c1nccn1C (centres undefined)	24.5 nM	–	–	–	–

From ChEMBL document CHEMBL3763037 (J Med Chem, 2016)
